Measured values published in patent publication US8900590B2 (priority 2010, dated 2014).

Tested on: H1N1 A/California/04/09
Assay type: in vivo, DBA/2 mice
Conditions: 18 days

Structure (SMILES): CCOC(=O)C1=C[C@@H](OC(CC)CC)[C@H](NC(C)=O)[C@@H](N)C1 [oseltamivir]
- animals survived: no survival
